Key:
[1] = test system: protein synthesis (araC-PBAD-gfp(ASV)); assay: araC-PBAD-gfp(ASV) expression in biofilm, protein synthesis control; type: cell-based, Pseudomonas aeruginosa; conditions: furanone 56 below 10 μg/ml, 0.2% L-arabinose; data not shown
Description: To determine if the furanone-mediated inhibition of green fluorescence is due to subtle non-specific effects on protein synthesis when the bacteria are growing in a biofilm, we examined expression of green fluorescence in cells harboring the araC-PBAD-gfp(ASV) cassette induced by suboptimal levels of L-arabinose is (0.2%). The cells became green fluorescent within 2 hours after induction.

[2] = test system: las quorum sensing system (lasB-gfp(ASV) Plac-lasR); assay: pMHLAS lasB-gfp(ASV) reporter in E. coli MT102; type: cell-based, Escherichia coli; conditions: E. coli MT102 host, data not shown
Description: (§1) AHL and furanone bioassay. Strains were grown exponentially in LB or ABt medium supplemented with 0.5% glucose at 30° C., shading at 250 rpm. At an optical density of approximately 0.8. the cultures were diluted and split into subcultures in glass culture flasks. AHLs and furanone 56 were added to appropriate concentrations and the cultures were further incubated at 30° C. under vigorous shaking. Culture samples were retrieved at various time intervals and green fluorescence was measured with a fluorometer (model RF-1501, Shimadzu, Tokyo, Japan) set at an excitation wavelength of 475 nm and emission wavelength of 515 nm. Relative fluorescence was calculated as green fluorescence normalized to 1 ml culture divided by the optical density (OD600 nm.
(§2) Initially, the lasB-gfp(ASV) translational fusion (OdDHL sensor) was thoroughly characterized with respect to its sensitivity and specificity. A culture of E. coli hosting the pMHLAS monitor plasmid was diluted and spilt into several subcultures which were then supplemented with AHLs at concentrations ranging from 0 to 1000 nM. […] When the pMHLAS based reporter system was hosted by PAO-JP2. the OdDHL concentration required for half-maximal activation of the lasB-gfp(ASV) fusion was 8 nM (data not shown). In single copy on the chromosome of PAO-JP2, the OdDHL concentration on required for half-maximal activation of lasB expression was approximately 250 nM (FIG. 2b). Green fluorescent cells were visible by epifluorescence microscopy at a minimal OdDHL concentration of 50 nM (FIG. 2c).
Effect of the furanone in a heterologous background. The direct regulation exerted by the las regulon on lasB expression is well described by numerous studies (Gambello & Iglewski, 1991: Pearson et al., 1994; Pearson et al., 1997). Regulatory complexity is added by the observation that the las quorum sensing circuit itself is subject to global regulators (Albus et al., 1997; Whiteley et al., 2000) and that lasB expression is also controlled by other regulators than LasR (Brumlik & Storey, 1992; Pesci et al., 1999; Schictman et al., 1995). It was, therefore, important to rule out that QSI effect, observed is not caused by furanone interaction with high levels of control. Since there is no AHL-based quorum sensing system present in Escherichia coli (Williams et al., 2000), this bacterium provides an unbiased and well-defined genetic background for studying the direct effects of the furanone on the P. aeruginosa las quorum sensing system. We repeated the above-described experiments using E. coli MT102 as a heterologous host for the reporter system. […] This is likely to be attributed to the increased copy number of the reporter plasmid.

[3] = test system: las quorum sensing system (lasB-gfp(ASV) expression); assay: AHL and furanone bioassay, PlasB-gfp(ASV) Plac-lasR reporter in planktonic PAO-JP2; type: cell-based, Pseudomonas aeruginosa
Description: as §1, §2
Noteworthy, the inhibitory effect of furanone 56 was relieved at increased concentrations of OdDHL.

[4] = test system: P. aeruginosa PAO1 biofilm; assay: Wild type P. aeruginosa PAO1 flowcell biofilm, lasB-gfp(ASV) reporter and Rfp tag, long term; type: cell-based, Pseudomonas aeruginosa
Description: P. aeruginosa biofilms. Biofilms were grown at 30° C. in three-dimensional flow cells (Christensen et al., 1999) with individual channel dimensions of 0.3×4×40 mm supplied With ABt minimal medium supplemented with 2% LB. The flow system was assembled and prepared as described by Christensen et al. (1999). The substratum consisted of a microscope glass coverslip (Knittel 24×50 mm st1, Knittel Glaser, Braunschweig, Germany). Cultures for inoculation of the flow channels were prepared in the following way: P. aeruginosa strains were streaked on LB plates with the appropriate antibiotics and incubated for 24 h at 37° C. From each plate a single colony was used for inoculation of 10 ml ABt with 10% LB. The cultures were grown at, 30° C. for 18 h before they were diluted to an OD600 nm of 0.1 in sterile 0.9% NaCl and used for inoculation of the flow channels. Medium flow was kept at a constant rate of 3 mL/h, equivalent to a mean flow velocity of 0.7 mm/s, using a Watson-Marlow 205S peristaltic pump (Watson-Marlow, Falmouth, England). Biofilms were grown for 24 hours before being shifted to media containing AHL and furanone.
Scanning confocal laser microscopy (SCLM). Microscopic inspection and image acquisition were performed an a scanning confocal laser microscope (model TCS4D, Leica Lasertechnik GmbH, Heldelberg, Germany) equipped with a 63×/1.32-0.6 oil objective. The microscope was equipped with a motorized and programmable xy-stage, which was used for monitoring single colonies during the biofilm experiments. At the beginning of each online experiment, the microscope was programmed to track single randomly selected microcolonies; the sensitivity of photo multipliers and the laser intensity were adjusted and thereafter kept constant through out the duration of the experiments. Image scanning was carried out using the 488 nm and 568 nm lines of an Ar/Kr laser for detection of Gfp and Rfp, respectively. Visualization of captured images was performed using the IMARIS software package (Bitplane AG, Zúrich, Switzerland) running on a Silicon Graphics Indigo 2 workstation (Silicon Graphics, Mountain View, Calif. USA).
Furanone 66 represses lasB-expression in wild type P. aeruginosa biofilms. Wild type P. aeruginosa (PAO1) carrying a chromosomally integrated lasB-gfp(ASV) reporter system was grown in flowcells similar to the PAO-JP2-based reporter strain. We focused on studying the effect of furanone 56 in loan term biofilm experiments. In favor of this approach is the observation by Davies et al. (1998) that quorum sensing is involved in maturation of P. aeruginosa biofilms (up to 2 weeks old). In order to support such longterm cultivation, the biofilm medium was modified to contain 0.3 mM glucose instead of 2% LB as a carbon source. In addition, the recently available Red Fluorescent Protein (Rfp) derived from the indopacific sea anemone Discosome was employed to provide a red fluorescent tag on the biofilm bacteria. A mini-Tn5 transposon with the dsred gene under control of the strong constitutive lac promoter was inserted into the chromosome of PAO1 containing the lasB reporter system.
The dual-labeled PAO1 strain was inoculated A grown in flowcells in the absence and presence of 5 μg/ml furanone 56. The flowcells were inspected daily for ten days and scanning confocal photomicrographs were captured (FIG. 6 & 7). For clarity, the green and red fluorescent signals from the same area of the biofilm are shown separately. Because the cells constitutively express Rfp, the red color correlates with cell mass, whereas the green fluorescence indicates active transcription of the lasB-gfp(ASV) reporter gene in response to on-going bacterial communication.

`O=C1C=C/C(=C/Br)O1` [furanone 56] was tested, and the “effect on Gfp-expression” value [1] was “no effect on Gfp-expression”, the “QSI activity / lasB promoter activity in heterologous E. coli background” value [2] was “repressed lasB promoter activity” and the “QSI activity / lasB promoter activity in heterologous E. coli background” value ([2]; listed as furanone) was “observed”. For the same compound, the “effect on lasB-gfp(ASV) expression” value ([3]; 1.25 μ/ml (7.1 μM) furanone, range of OdDHL concentrations) was “inhibited lasB-gfp(ASV) expression at a wide range of OdDHL concentrations”, the “complete inhibition of lasB-gfp(ASV) expression” value ([3]; any of the tested concentrations) was “complete inhibition was not attained at any of the tested concentrations” and the “reporter system in biofilms” value ([4]; 5 μg/ml furanone 56) was “partially shut down”. For the same compound, the “complete inhibition of the lasB-gfp(ASV) reporter in all biofilm bacteria” value ([4]; concentrations with no effect on growth (<10 μg/ml)) was “not achievable”, the “bacterial signaling (green fluorescence)” value ([4]; day 1, 5 μg/ml furanone 56) was “greatly reduced” and the early biofilm formation ([4]; day 1, 5 μg/ml furanone 56) was “not or only slightly affected”. For the same compound, the “green fluorescence of biofilm cells” value ([4]; day 7, 5 μg/ml furanone 56) was “far less green fluorescence”, the average biofilm thickness ([4]; day 7, 5 μg/ml furanone 56 (untreated 61±6 μm)) was 23±4 μm and the biofilm maturation ([4]; wild type biofilm grown in the presence of furanone) was “failed to mature”.

Reference: patent US20040147595A1, “Biofilm degrading or sloughing compositions and methods” (priority 2001, published 2004)
